Source: US20210260102A1, “TUNABLE IMMUNE RESPONSIVE BIODEGRADABLE ARGININE-BASED POLY(ESTER AMIDE)S AND METHODS OF MAKING AND USING SAME” (Cornell University, priority 2018, published 2021)

Legend:
RAW 264.7 cells [1] = assay: NO production of macrophages (Griess reagent); format: cell-based, murine; conditions: CAM (LPS+IFN-γ), 24 h
RAW 264.7 cells [2] = assay: Arginase activity assay of treated macrophages; conditions: 2 mg/mL, 24 h
Description: 4×10^5 RAW 264.7 cells in each well were incubated in 400 μL DMEM media contains 10% FBS in 24 well plates for 24 h. […] For CAM or AAM group, treatments contained either 100 U/mL recombinant mouse interferon-γ (IFN-γ, 1.25×10^7 U/mg, Shenandoah Biotechnology, PA) plus 100 ng/mL lipopolysaccharide (LPS, Sigma-Aldrich) or 20 ng/mL recombinant mouse interleukin-4 (IL-4, Shenandoah Biotechnology, PA) respectively to induce different activation phenotype. Resting Macrophages, CAM and AAM incubated in DMEM contains 5% FBS without treatments were used as controls.
The arginase activity assay is tested colorimetrically. The cells were washed with PBS and lysed by 200 μL 0.2% Triton X-100 in 20 mM Tris-HCl, pH 7.5 containing 20 g pepstatin A, 20 μg aprotinin and 20 μg leupeptin as protease inhibitors. After the cell was lysed, 200 μL 10 mM MnCl2 was added and the enzyme was activated for 10 minutes at 55° C. 100 μL aliquot of the activated lysate was mixed with 100 μL 0.5 M Arg and incubated at 37° C. for 1 h. […] After being cooled to room temperature, the absorbance of 200 μL mixture solution at 540 nm was tested in 96 well plates. […] The NO production and the arginase activity in three replicate wells of each condition were tested and the mean value was calculated with standard deviations.

[3] = neutral pH; cited from earlier work

Molecule	NO production of CAM (RAW 264.7 cells [1]; 1 mg/mL) [µM]	NO production of CAM (RAW 264.7 cells [1]; 2 mg/mL) [µM]	arginase activity of CAM (RAW 264.7 cells [2]) [U]	water solubility [3] [µg/mL]
N=C(N)NCCC[C@H](N)C(=O)O [Arg, L-arginine]	42.5 ± 2.6	50.7 ± 1.1	17.9±0.7	
N-nitro-L-arginine [NOArg]				~870
